Measured values taken from ChEMBL document CHEMBL1127109, “Thiol and hydroxamic acid containing inhibitors of endothelin converting enzyme” (Bioorg Med Chem Lett, 1993).
Where a SMILES comes first, the peptide text is derived from it. The star is where a group is joined. Cbz = O=C(OCc1ccccc1)*

What follows are compounds tested against T1, Endothelin-converting enzyme 1 (Homo sapiens) (UniProt P42892) (assay: Compound was tested in vitro for percent inhibition of a putative Endothelin-converting enzyme at 100 uM partially purified from rabbit lung membrane). Conditions: Oryctolagus cuniculus, target entry is the homologue from another species.
T1 sequence (whole entry): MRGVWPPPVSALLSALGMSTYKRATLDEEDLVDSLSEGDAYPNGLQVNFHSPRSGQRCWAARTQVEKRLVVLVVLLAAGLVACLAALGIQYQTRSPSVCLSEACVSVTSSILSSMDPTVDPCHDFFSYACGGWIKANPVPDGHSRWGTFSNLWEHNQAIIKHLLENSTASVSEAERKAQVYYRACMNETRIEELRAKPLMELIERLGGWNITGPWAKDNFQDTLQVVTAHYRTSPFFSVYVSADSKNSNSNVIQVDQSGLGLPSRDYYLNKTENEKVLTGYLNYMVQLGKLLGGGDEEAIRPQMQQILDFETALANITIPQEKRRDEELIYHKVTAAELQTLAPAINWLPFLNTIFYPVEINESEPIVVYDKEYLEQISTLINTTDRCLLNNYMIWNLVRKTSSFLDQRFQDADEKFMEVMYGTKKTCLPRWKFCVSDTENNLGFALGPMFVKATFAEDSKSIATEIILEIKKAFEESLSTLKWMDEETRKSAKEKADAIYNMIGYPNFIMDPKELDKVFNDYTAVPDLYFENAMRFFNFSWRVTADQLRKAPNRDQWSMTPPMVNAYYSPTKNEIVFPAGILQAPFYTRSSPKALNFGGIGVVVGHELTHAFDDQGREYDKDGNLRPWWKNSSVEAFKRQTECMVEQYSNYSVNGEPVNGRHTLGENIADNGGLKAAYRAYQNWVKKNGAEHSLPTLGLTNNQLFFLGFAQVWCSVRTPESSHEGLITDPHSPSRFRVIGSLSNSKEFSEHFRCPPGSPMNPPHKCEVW
Format: tissue-based

| SMILES | inhibition [%] |
| --- | --- |
| COC(=O)[C@H](Cc1c[nH]c2ccccc12)NC(=O)[C@H](CS)NC(=O)OCc1ccccc1 (Cbz-Cys-Trp-OMe) | 93 |
| COC(=O)[C@H](CC(C)C)NC(=O)[C@H](CS)NC(=O)OCc1ccccc1 | 89 |

Second part, the compound after the results:

| inhibition [%] | SMILES |
| --- | --- |
| 90 | O=C(N[C@@H](CS)C(=O)N[C@@H](Cc1c[nH]c2ccccc12)C(=O)O)OCc1ccccc1 (Cbz-Cys-Trp-OH) |
| 75 | CC(C)C[C@H](NC(=O)[C@H](CS)NC(=O)OCc1ccccc1)C(=O)N[C@@H](Cc1c[nH]c2ccccc12)C(=O)O (Cbz-Cys-Leu-Trp-OH) |
| 83 | COC(=O)[C@H](Cc1c[nH]c2ccccc12)NC(=O)[C@H](CC(C)C)NC(=O)[C@H](CS)NC(=O)OCc1ccccc1 (Cbz-Cys-Leu-Trp-OMe) |

The compounds below were run against T2, Thermolysin (Bacillus thermoproteolyticus, UniProt P00800) (assay: Compound was tested in vitro for inhibitory activity against thermolysin). Conditions: not given.
T2 sequence (P00800 whole entry): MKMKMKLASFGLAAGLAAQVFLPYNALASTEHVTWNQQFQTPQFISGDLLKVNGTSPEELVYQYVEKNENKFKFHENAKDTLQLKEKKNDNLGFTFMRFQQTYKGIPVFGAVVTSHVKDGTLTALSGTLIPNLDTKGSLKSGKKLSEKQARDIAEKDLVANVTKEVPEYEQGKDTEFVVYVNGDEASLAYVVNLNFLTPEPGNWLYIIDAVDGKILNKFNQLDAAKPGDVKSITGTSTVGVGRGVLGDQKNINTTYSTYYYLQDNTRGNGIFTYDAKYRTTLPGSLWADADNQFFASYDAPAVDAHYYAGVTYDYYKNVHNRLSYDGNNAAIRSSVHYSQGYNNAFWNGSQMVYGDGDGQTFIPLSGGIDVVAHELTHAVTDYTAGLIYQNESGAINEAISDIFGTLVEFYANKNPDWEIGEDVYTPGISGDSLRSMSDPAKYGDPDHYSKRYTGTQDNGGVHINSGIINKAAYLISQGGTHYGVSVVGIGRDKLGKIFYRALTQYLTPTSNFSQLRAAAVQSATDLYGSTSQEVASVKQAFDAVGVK

| IC50 [µM] | SMILES |
| --- | --- |
| 0.064 | CC(C)C[C@H](C(=O)NO)C(=O)N[C@@H](C)C(=O)NCC(N)=O |
